Results: patent US6235780A, “ω-cycloalkyl-prostaglandin E1 derivatives” (Ono Pharmaceutical Co., Ltd., priority 1998, dated 2001)

Assays:
mouse EP2 = target: T1, mouse EP2 (Mus musculus, UniProt Q62053); assay: Binding assay using expression cell of prostanoids receptor subtype: 3H-PGE2 binding inhibition, EP2; settings: 2.5 nM 3H-PGE2, CHO cell membrane fraction, pH 6.0, room temperature, 1 hour; read-out: Dissociation Constant Ki, EP2
T1 construct: expressed in transfected cells; host or cells: CHO cells
T1 sequence (Q62053 whole entry): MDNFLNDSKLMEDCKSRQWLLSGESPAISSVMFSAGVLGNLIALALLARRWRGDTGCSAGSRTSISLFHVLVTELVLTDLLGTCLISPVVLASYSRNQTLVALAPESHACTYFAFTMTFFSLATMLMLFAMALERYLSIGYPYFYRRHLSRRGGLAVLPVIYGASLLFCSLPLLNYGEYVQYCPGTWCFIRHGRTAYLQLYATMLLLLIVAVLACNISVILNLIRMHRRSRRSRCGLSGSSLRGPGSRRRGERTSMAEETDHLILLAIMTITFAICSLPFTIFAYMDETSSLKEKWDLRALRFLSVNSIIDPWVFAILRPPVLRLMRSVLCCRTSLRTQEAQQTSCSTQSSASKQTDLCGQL
Procedure: (§1) (i) Binding assay using expression cell of prostanoids receptor subtype
(§2) The preparation of membrane fraction was carried out according to the method of Sugimoto et al. [J. Biol. Chem., 267, 6463-6466 (1992)], using expression CHO cell of the prostanoids receptor subtype (mouse EP1, EP2, EP3α, EP4).
(§3) The standard assay mixture containing membrane fraction (0.5 mg/ml), and ^3 H-PGE2 in a final volume of 200 μl was incubated at room temperature for 1 hour. The reaction was terminated by addition of 3 ml of ice-cooled buffer. The mixture was filtered through a GF/B glass filter under reduced pressure. The radioactivity associated with the filter was measured by liquid scintillation counter.
(§4) Kd and Bmax values were determined from Scatchard plots [Ann. N.Y. Acad. Sci., 51, 660 (1949)]. Non-specific binding was calculated as the binding in the presence of an excess (10 μM) of unlabeled PGE2. In the measurement of ^3 H-PGE2 binding inhibitory activity, 2.5 nM of ^3 H-PGE2 and various concentrations of the compounds of the present invention were added. The following buffer was used in all reactions.
(§5) Buffer; 10 mM potassium phosphate (pH 6.0), 1 mM EDTA, 10 mM MgCl2, 0.1 M NaCl.
(§6) The dissociation constant Ki (μM) of each compound was calculated by the following equation.

mouse EP4 = target: T2, mouse EP4 (Mus musculus, UniProt P32240); assay: Binding assay using expression cell of prostanoids receptor subtype: 3H-PGE2 binding inhibition, EP4; settings: 2.5 nM 3H-PGE2, CHO cell membrane fraction, pH 6.0, room temperature, 1 hour; read-out: Dissociation Constant Ki, EP4
T2 construct: expressed in transfected cells; host or cells: CHO cells
T2 sequence (P32240 whole entry): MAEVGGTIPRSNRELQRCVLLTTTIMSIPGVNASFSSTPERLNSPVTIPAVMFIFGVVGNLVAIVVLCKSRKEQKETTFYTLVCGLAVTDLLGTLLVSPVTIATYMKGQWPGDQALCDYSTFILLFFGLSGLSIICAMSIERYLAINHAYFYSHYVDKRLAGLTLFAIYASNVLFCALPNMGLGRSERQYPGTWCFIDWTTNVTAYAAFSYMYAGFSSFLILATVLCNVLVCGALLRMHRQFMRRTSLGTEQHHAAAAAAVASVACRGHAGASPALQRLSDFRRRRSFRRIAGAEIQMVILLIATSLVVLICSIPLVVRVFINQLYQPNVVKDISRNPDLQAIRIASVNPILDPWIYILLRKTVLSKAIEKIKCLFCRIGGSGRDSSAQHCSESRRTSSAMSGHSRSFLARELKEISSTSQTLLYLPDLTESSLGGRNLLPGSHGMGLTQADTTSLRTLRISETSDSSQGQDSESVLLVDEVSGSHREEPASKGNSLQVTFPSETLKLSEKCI
Procedure: as §1, §2, §3, §4, §5, §6

mouse EP1 = target: T3, mouse EP1 (Mus musculus, UniProt P35375); assay: Binding assay using expression cell of prostanoids receptor subtype: 3H-PGE2 binding inhibition, EP1; settings: 2.5 nM 3H-PGE2, CHO cell membrane fraction, pH 6.0, room temperature, 1 hour; read-out: Dissociation Constant Ki, EP1
T3 construct: expressed in transfected cells; host or cells: CHO cells
T3 sequence (P35375 1-405): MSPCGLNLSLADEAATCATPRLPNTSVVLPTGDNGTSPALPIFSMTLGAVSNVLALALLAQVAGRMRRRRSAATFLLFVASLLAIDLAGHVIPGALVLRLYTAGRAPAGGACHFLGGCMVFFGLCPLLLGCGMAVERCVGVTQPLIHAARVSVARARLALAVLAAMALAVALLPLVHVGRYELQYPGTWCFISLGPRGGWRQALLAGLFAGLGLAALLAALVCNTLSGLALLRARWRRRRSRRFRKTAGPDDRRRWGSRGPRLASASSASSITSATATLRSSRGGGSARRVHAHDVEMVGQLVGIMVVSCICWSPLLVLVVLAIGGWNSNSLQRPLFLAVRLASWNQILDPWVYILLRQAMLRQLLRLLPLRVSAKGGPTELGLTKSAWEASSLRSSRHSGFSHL
Procedure: as §1, §2, §3, §4, §5, §6

mouse EP3α = target: T4, mouse EP3α (Mus musculus, UniProt P30557); assay: Binding assay using expression cell of prostanoids receptor subtype: 3H-PGE2 binding inhibition, EP3α; settings: 2.5 nM 3H-PGE2, CHO cell membrane fraction, pH 6.0, room temperature, 1 hour; read-out: Dissociation Constant Ki, EP3α
T4 construct: expressed in transfected cells; host or cells: CHO cells
T4 sequence (P30557 1-365): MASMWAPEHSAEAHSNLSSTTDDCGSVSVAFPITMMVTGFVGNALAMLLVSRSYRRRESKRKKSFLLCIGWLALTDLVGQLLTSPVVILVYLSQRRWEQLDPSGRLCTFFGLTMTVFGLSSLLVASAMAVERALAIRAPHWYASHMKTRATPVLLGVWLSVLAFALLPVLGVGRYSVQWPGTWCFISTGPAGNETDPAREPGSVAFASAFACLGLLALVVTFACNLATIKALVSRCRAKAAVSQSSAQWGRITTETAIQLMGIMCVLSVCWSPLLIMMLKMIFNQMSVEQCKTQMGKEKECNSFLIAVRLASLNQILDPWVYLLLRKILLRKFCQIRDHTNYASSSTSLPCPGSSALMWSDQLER
Procedure: as §1, §2, §3, §4, §5, §6

Ki (mouse EP2) | Ki (mouse EP4) | Ki (mouse EP1) | Ki (mouse EP3α) | SMILES
0.066 µM | > 10 µM | > 10 µM | > 10 µM | CCC1([C@@H](O)C/C=C/[C@@H]2[C@@H](CCCCCCC(=O)O)[C@H](F)C[C@H]2O)CCC1 [Example 2(a), (9β,11α,16α)-9-Fluoro-11,16-dihydroxy-17,17-propano-20-norprosta-13E-enoic acid]
0.0081 µM | 1.7 µM | 5.7 µM | > 10 µM | CCC1([C@@H](O)C/C=C/[C@@H]2[C@@H](CCCCCCC(=O)O)[C@H](Cl)C[C@H]2O)CCC1 [Example 2, (9β,11α,16α)-9-Chloro-11,16-dihydroxy-17,17-propano-20-norprosta-13E-enoic acid]
0.017 µM | > 10 µM | 3.5 µM | > 10 µM | CCC1([C@@H](O)CCC[C@@H]2[C@@H](CCCCCCC(=O)O)[C@H](Cl)C[C@H]2O)CCC1 [Example 3(a), (9β,11α,16α)-9-Chloro-11,16-dihydroxy-17,17-propano-20-norprostanoic acid]
